Reference: publication PMC6270099, “Synthesis, Biological Evaluation, and Pharmacokinetic Study of Novel Liguzinediol Prodrugs” (Molecules, 2013)
Marks after values point to notes of the source that are not given here.

Legend:
[1] = system: isolated Langendorff-perfused rat hearts; assay: Ex vivo Langendorff-perfused rat heart, cardiac performance; conditions: for ∆% +dP/dtmax / ∆% LVDP / ∆% −dP/dtmax: increase vs. control; for LVDP: isolated rat heart, mean ± SD, n = 6
Method: The cardiac contractility and safety of prodrugs 3–5 were evaluated on the myocardium in normal isolated rat hearts with LZDO as a positive control. Prodrugs 3–5 exerted positive inotropic effects in a dose-dependent manner. The increased rate in left ventricular developed pressure (LVDP, accepted as contractile force), +dP/dtmax (used as an index of contractility), the maximum rate of pressure decrease of the left ventricle ([…], used as an index of diastolic function) and the heart rate (HR, used as an index of heart muscle oxygen consumption) of these compounds vs. control are listed in Table 1.
All commercial reagents and solvents were used without further purification unless otherwise specified. Melting points were determined using a model Buchi B-450 apparatus. ESI-MS were recorded on a TOF mass spectrometer (Applies-Biosystem Mariner). IR spectra were acquired by using a THERMO IR spectrometer Model Nicolet-100. ^1H- and ^13C-NMR spectra (500/125 MHz) were recorded on a Bruker Advance 500 spectrophotometer. Mass spectra were recorded on a ZAB-HS mass spectrometer and are reported as m/z values. HPLC analysis was conducted on a Waters 2695 HPLC instrument equipped with a UV detector (model 2489). LZDO and prodrugs 3–5 were analysed by HPLC, and their purity was confirmed to be greater than 98.0%. In vitro metabolic stability analysis was conducted by a HPLC method, using stock standard solutions of LZDO and prodrugs that were prepared in water at a concentration of 30 mM. The positive inotropic effects on the myocardium of LZDO and prodrugs 3–5 in vitro were evaluated on Langendorff-perfused hearts isolated from normal Sprague-Dawley rats. A HPLC method was applied to measure the rat plasma concentrations of LZDO and prodrug 3 after intragastric administration of prodrug 3 in the rats.
Sprague-Dawley adult male rats weighing 260–320 g were anaesthetised by intraperitoneal administration of 20% urethane (1.2 g/kg). The hearts were quickly removed and placed into an ice-cold modified buffer until contractions ceased. The heart was cleaned of surrounding tissues, mounted on the aortic cannula of the Langendorff perfusion system apparatus, and perfused with oxygenated buffer (mM): NaCl 117, KCl 5.7, CaCl2 1.8, MgCl2 1.7, NaHCO3 4.4, NaH2PO4 1.5, HEPES 20 and glucose 11. The buffer was equilibrated with 95% O2 and 5% CO2 and adjusted to pH 7.4 with NaOH before it entered the heart. An epicardial electrogram was registered using two stainless steel electrodes, one attached to the apex of the heart and the other to the aortic cannula. To obtain an isovolumetrically beating preparation, a latex balloon filled with water and connected by a catheter to a transducer was inserted through the left atrium into the left ventricle and inflated to provide an end-diastolic pressure between 8 and 12 mm Hg. Before each experimental protocol was initiated, the isolated hearts were set at a mean arterial pressure of 60–80 mm Hg and allowed to stabilise at 37 °C for 40–60 min. The isolated rat hearts were then perfused in sequence with 1, 10, and 100 μM of LZDO and prodrugs 3–5 in each group. A RM6240B/C four channel physiological recording instrument (Chengdu Instrument Factory, Chengdu, China) was used for continuous recording of LVSP, LVEDP, HR (derived from electrogram), +dP/dtmax and −dP/dtmax throughout the experiments. The criteria for established stability were LVDP > 50 mmHg, +dP/dtmax > 1,600 mmHg·s^−1, heart rate > 180 beats·min^−1 and normal sinus rhythm. The hearts were not studied if they had weak contractility (+dP/dtmax < 1,600 mmHg·s^−1) and severe arrhythmia. Diastolic balloon pressure was maintained at 8 mmHg. LVDP was calculated as the difference between the systolic and diastolic pressures. The results are expressed as the mean value of hemodynamic variables (n = 6). Statistical analysis was performed using SPSS for Windows (version 13.0). Data were analyzed by One-way ANOVA. […]

[2] = Pharmacokinetics of LZDO in rats after intragastric administration of prodrug 3; format: in vivo, rat; conditions: rats (data not shown)
Method: Pharmacokinetic parameters including half-life, clearance, and bioavailability are important properties of a drug candidate. […] The major pharmacokinetic parameters of LZDO were calculated using a noncompartment model based on statistical moment. The pharmacokinetic parameters of LZDO after intragastric administration of prodrug 3 at 10, 20 and 40 mg/kg in rats are summarized in Table 2. The pharmacokinetic parameters of LZDO after intragastric administering LZDO at 10, 20 and 50 mg/kg in rats are summarized in Table 3 [19]. Prodrug 3 was converted completely within 2 h in rats (data not shown).
Sprague-Dawley rats (male, weighing 200 ± 20 g) were obtained from Slack Laboratory Animal Site (Shanghai, China) and kept in an environmentally controlled breeding room for at least five days before experimentation. The rats were fasted overnight but with free access to water before the test. Animal welfare and experimental procedures were strictly in accordance with the guide for the care and use of laboratory animals. […] The collected blood samples were pretreated by the aforementioned method (sample dilutions were made when necessary) and the concentrations of LZDO and prodrug 3 in each sample were finally determined based on the validated HPLC method. […]

Row | Structure (SMILES) | +dP/dtmax ([1]; 1 μM) | HR ([1]; 1 μM) | −dP/dtmax ([1]; 1 μM) | ∆% +dP/dtmax ([1]; 1 μM) | ∆% LVDP ([1]; 1 μM) | ∆% −dP/dtmax ([1]; 1 μM) | LVDP ([1]; 1 μM) | +dP/dtmax ([1]; 10 μM) | HR ([1]; 10 μM) | −dP/dtmax ([1]; 10 μM) | ∆% +dP/dtmax ([1]; 10 μM) | ∆% LVDP ([1]; 10 μM) | ∆% −dP/dtmax ([1]; 10 μM) | LVDP ([1]; 10 μM) | +dP/dtmax ([1]; 100 μM) | HR ([1]; 100 μM) | −dP/dtmax ([1]; 100 μM) | ∆% +dP/dtmax ([1]; 100 μM) | ∆% −dP/dtmax ([1]; 100 μM) | LVDP ([1]; 100 μM) | further results
1 | CC(=O)OCc1nc(C)c(COC(C)=O)nc1C [compound 3] | 1,641 ± 29 mmHg/s | 203 ± 15 beat·min^−1 | −1,139 ± 76 mmHg/s | 1.9 ± 0.5% | 15.0 ± 5.5% | 4.9 ± 5.9% | 63 ± 2 ^b mmHg | 1,768 ± 91 ^bd mmHg/s | 204 ± 14 beat·min^−1 | −1,184 ± 75 ^a mmHg/s | 9.8 ± 7.0% | 26.3 ± 7.7% | 9.0 ± 5.1% | 69 ± 1.1 ^bd mmHg | 2,123 ± 82 ^bdf mmHg/s | 205 ± 26 beat·min^−1 | −1,313 ± 70 ^bdf mmHg/s | 31.8 ± 5.3% | 20.9 ± 5.1% | 79 ± 1.6 ^bdf mmHg | ∆% LVDP ([1]; 100 μM): 44.7 ± 6.6%; positive inotropic effect on the myocardium ([1]; normal isolated rat hearts, 1, 10, 100 μM): most potent prodrug; time to complete conversion of prodrug in rats [2]: ≤ 2 h
2 | Cc1nc(COC(=O)C(C)C)c(C)nc1COC(=O)C(C)C [compound 4, 2,5-Di-iso-butyryloxymethyl-3,6-dimethylpyrazine] | 1,669 ± 103 mmHg/s | 213 ± 46 beat·min^−1 | −1,101 ± 102 mmHg/s | 2.2 ± 3.4% | 17.4 ± 9.8% | 5.6 ± 8.3% | 63 ± 3 ^b mmHg | 1,765 ± 52 ^a mmHg/s | 196 ± 16 beat·min^−1 | −1,196 ± 54 ^bc mmHg/s | 4.9 ± 5.4% | 14.2 ± 10.0% | 9.9 ± 9.5% | 60 ± 4 ^a mmHg | 1,952 ± 49 ^bdf mmHg/s | 191 ± 29 beat·min^−1 | −1,399 ± 61 ^bdf mmHg/s | 9.0 ± 8.9% | 16.7± 15.2% | 73 ± 2.3 ^bdf mmHg | 
3 | Cc1nc(COC(=O)c2ccccc2)c(C)nc1COC(=O)c1ccccc1 [compound 5, 2,5-Dibenzoyloxymethyl-3,6-dimethylpyrazine] | 1,688 ± 95 mmHg/s | 189 ± 30 beat·min^−1 | −1,095 ± 45 mmHg/s | 1.0 ± 1.1% | 5.3 ± 3.3% | 1.3 ± 0.8% | 55 ± 5 mmHg | 1,831 ± 14 ^bd mmHg/s | 196 ± 40 beat·min^−1 | −1,245 ± 48 ^bd mmHg/s | 9.9 ± 5.9% | 13.9 ± 7.4% | 15.3 ± 2.8% | 59 ± 2.5 ^b mmHg | 1,962 ± 70 ^bdf mmHg/s | 213 ± 41 beat·min^−1 | −1,314 ± 63 ^bde mmHg/s | 17.6 ± 6.8% | 21.7 ± 7.2% | 64 ± 2.4 ^bde mmHg | ∆% LVDP ([1]; 100 μM): 24.5 ± 11.2%
